# Results: patent publication US20260297092A1, “PYRAZOLOPYRIMIDINE DERIVATIVES AS INHIBITORS OF NLRP3” (Takeda Pharmaceutical Company Limited, priority 2023, published 2026)
# System: NLRP3 inflammasome (IL-1β production in THP-1 cells)
# Assay: IL-1β TR-FRET Assay (percentage of inhibition at 300 nM, 6 μM or 10 μM)
# Assay type: cell-based, human
# Conditions: Homo sapiens, LPS priming, ATP activation; for inhibition at 6 µM: THP-1, 6 μM, read-out: IL-1β inhibitory rate at 6 μM (%); for inhibition at 0.3 µM: THP-1, 300 nM, read-out: IL-1β inhibitory rate at 300 nM (%)
# Experimental: The biological activity of the compound of Formula 1 with respect to NLRP3 was determined using the following in vitro method.
# IL-1β TR-FRET Assay (reported as percentage of inhibition at 300 nM, 6 μM or 10 μM)
# Monocytic THP-1 cells (ATCC: TIB-202) were maintained in accordance with the provider's instructions in RPMI media (Life Technologies, Cat #A10491-01); RPMI was supplemented with 10% heat inactivated fetal bovine serum (Corning, Cat #35-010-CV). The cells were differentiated into macrophages by the addition of 25 ng/mL IFN-γ (PeproTech, Cat #AF-300-02-100UG) for 24 hours at 37° C./5% CO2. Media was exchanged with fresh media with no FBS, and the cells were treated with 50 ng/mL LPS (priming step) (LPS-EK: Invivogen, Cat #tlrl-peklps). The cells were plated at 20,000 cells per well in 384-well flat-bottom cell culture plates (FALCON, Cat #353962) and were incubated for 24 hours at 37° C./5% CO2. Compounds were serially diluted (half log or 5-fold dilutions) with DMSO and were finally diluted with Media with no FBS. The compounds were added to the cells in 384-well plates (added in 1:3) and then the plates were incubated for 30 minutes at 37° C./5% CO2. The NLRP3 inflammasome was activated with the addition of 20 mM ATP (Sigma Cat #A3377-25G) and the cells were incubated for 2 hours at 37° C./5% CO2. At the end of the incubation period, 30 μL supernatant was transferred to another 384-well plate and mixed on a plate shaker for 1 minute. The supernatant was mixed with HTRF Antibody (Human IL1 beta kit, Cisbio, 62HIL1BPEH) in assay plates (Greiner Bio-One, Cat #784075) and the assay plates were incubated in shading box at room temperature for 16-24 hours. HTRF signal was measured by EnVision (Perkinelmer) in accordance with the manufacturer's instructions.
# The percentage of inhibition at 300 nM, 6 μM or 10 μM in the IL-1βTR-FRET assay was calculated by the following formula: Percentage of inhibition=[1−(HTRF signaltest−HTRF signalLow)/(HTRF signalHigh−HTRF signalLow)]*100, where HTRF signaltest is the HTRF signal in the well to which test compound is added, HTRF signalLow is the HTRF signal in the well to which 3 μM MCC-950 is added, and the HTRF signalHigh is the HTRF signal in the well to which DMSO is added.
Compound,inhibition at 6 µM [%],inhibition at 0.3 µM [%]
"CCOc1nc2nn(-c3c(C#N)cc(C4CC4)cc3C(F)F)cc2c(=O)[nH]1 [Example 254, 5-cyclopropyl-3-(difluoromethyl)-2-(6-ethoxy-4-oxo-4,5-dihydro-2H-pyrazolo[3,4-d]pyrimidin-2-yl)benzonitrile]",100,
"CCOc1nc2nn(-c3ccc(C4(F)CC4)cc3F)cc2c(=O)[nH]1 [Example 183, 6-ethoxy-2-[2-fluoro-4-(1-fluorocyclopropyl)phenyl]-2,5-dihydro-4H-pyrazolo[3,4-d]pyrimidin-4-one]",,96
"Cc1cc(C2CC2)cc(C)c1-n1cc2c(=O)[nH]c([C@]3(F)CCOC3)nc2n1 [Example 290, 2-(4-cyclopropyl-2,6-dimethylphenyl)-6-[(3S)-3-fluorooxolan-3-yl]-2,5-dihydro-4H-pyrazolo[3,4-d]pyrimidin-4-one or 2-(4-cyclopropyl-2,6-dimethylphenyl)-6-[(3R)-3-fluorooxolan-3-yl]-2,5-dihydro-4H-pyrazolo[3,4-d]pyrimidin-4-one]",99,
"Cc1cc(C2CC2)cc(Cl)c1-n1cc2c(=O)[nH]c(COC(F)F)nc2n1 [Example 294, 2-(2-chloro-4-cyclopropyl-6-methylphenyl)-6-[(difluoromethoxy)methyl]-2,5-dihydro-4H-pyrazolo[3,4-d]pyrimidin-4-one]",106,
"Cc1cc(C2CC2)cc(C)c1-n1cc2c(=O)[nH]c(C3C=COCC3)nc2n1 (stereo not shown) [Example 306, 2-(4-cyclopropyl-2,6-dimethylphenyl)-6-(3,4-dihydro-2H-pyran-4-yl)-2,5-dihydro-4H-pyrazolo[3,4-d]pyrimidin-4-one]",98,
"Cc1cc(C2CC2)cc(C)c1-n1cc2c(=O)[nH]c(COC3COC3)nc2n1 [Example 236, 2-(4-cyclopropyl-2,6-dimethylphenyl)-6-{[(oxetan-3-yl)oxy]methyl}-2,5-dihydro-4H-pyrazolo[3,4-d]pyrimidin-4-one]",93,
"Cc1cc(C2CC2)cc(C)c1-n1cc2c(=O)[nH]c(C3(F)CCOCC3)nc2n1 [Example 238, 2-(4-cyclopropyl-2,6-dimethylphenyl)-6-(4-fluorooxan-4-yl)-2,5-dihydro-4H-pyrazolo[3,4-d]pyrimidin-4-one]",97,
"Cc1cc(C2CC2)cc(C)c1-n1cc2c(=O)[nH]c(C3COCCO3)nc2n1 (racemic) [Example 232, 2-(4-cyclopropyl-2,6-dimethylphenyl)-6-(1,4-dioxan-2-yl)-2,5-dihydro-4H-pyrazolo[3,4-d]pyrimidin-4-one]",,97
"Cc1cc(C2CC2)cc(C)c1-n1cc2c(=O)[nH]c(CCOCc3ccccc3)nc2n1 [Example 268, 6-[2-(benzyloxy)ethyl]-2-(4-cyclopropyl-2,6-dimethylphenyl)-2,5-dihydro-4H-pyrazolo[3,4-d]pyrimidin-4-one]",98,
"Cc1ccc(-n2cc3c(=O)[nH]c(OCCCC(F)(F)F)nc3n2)c(C)c1 [Example 196, 2-(2,4-dimethylphenyl)-6-(4,4,4-trifluorobutoxy)-2,5-dihydro-4H-pyrazolo[3,4-d]pyrimidin-4-one]",,55
"O=c1[nH]c(COC(F)F)nc2nn(-c3ccc(C4CC4)cc3C(F)F)cc12 [Example 271, 2-[4-cyclopropyl-2-(difluoromethyl)phenyl]-6-[(difluoromethoxy)methyl]-2,5-dihydro-4H-pyrazolo[3,4-d]pyrimidin-4-one]",102,
"Cc1cc(C2CC2)cc(C)c1-n1cc2c(=O)[nH]c(C(C)(C)O)nc2n1 [Example 172, 2-(4-cyclopropyl-2,6-dimethylphenyl)-6-(2-hydroxypropan-2-yl)-2,5-dihydro-4H-pyrazolo[3,4-d]pyrimidin-4-one]",,61
"CCOc1nc2nn(-c3c(C)cc(C)cc3F)cc2c(=O)[nH]1 [Example 78, 6-ethoxy-2-(2-fluoro-4,6-dimethylphenyl)-2,5-dihydro-4H-pyrazolo[3,4-d]pyrimidin-4-one]",,98
"Cc1cc(Br)cc(C)c1-n1cc2c(=O)[nH]c(-c3ccncn3)nc2n1 [Example 185, 2-(4-bromo-2,6-dimethylphenyl)-6-(pyrimidin-4-yl)-2,5-dihydro-4H-pyrazolo[3,4-d]pyrimidin-4-one]",,114
"COCc1nc2nn(-c3c(C(F)F)cc(C4CC4)c(C4CC4)c3C)cc2c(=O)[nH]1 [Example 320, 2-[3,4-dicyclopropyl-6-(difluoromethyl)-2-methylphenyl)-6-(methoxymethyl)-2,5-dihydro-4H-pyrazolo[3,4-d]pyrimidin-4-one]",94,
"CO[C@H]1C[C@@H](c2nc3nn(-c4c(C)cc(C5CC5)cc4C)cc3c(=O)[nH]2)C1 [Example 248, 2-(4-cyclopropyl-2,6-dimethylphenyl)-6-[(1s,3s)-3-methoxycyclobutyl]-2,5-dihydro-4H-pyrazolo[3,4-d]pyrimidin-4-one]",100,
"COCc1nc2nn(-c3c(C)cc(C4CC4)cc3CC(F)F)cc2c(=O)[nH]1 [Example 323, 2-[4-cyclopropyl-2-(2,2-difluoroethyl)-6-methylphenyl]-6-(methoxymethyl)-2,5-dihydro-4H-pyrazolo[3,4-d]pyrimidin-4-one]",103,
"Cc1c(Br)c(Br)cc(C(F)F)c1-n1cc2c(=O)[nH]c(COC(F)F)nc2n1 [Example 280, 2-[3,4-dibromo-6-(difluoromethyl)-2-methylphenyl]-6-[(difluoromethoxy)methyl]-2,5-dihydro-4H-pyrazolo[3,4-d]pyrimidin-4-one]",99,
"CCOc1c(-n2cc3c(=O)[nH]c(CC)nc3n2)ccc(C2CC2)c1C(F)F [Example 282, 2-[4-cyclopropyl-3-(difluoromethyl)-2-ethoxyphenyl]-6-ethyl-2,5-dihydro-4H-pyrazolo[3,4-d]pyrimidin-4-one]",55,
"Cc1cc(C2CC2)cc(C)c1-n1cc2c(=O)[nH]c([C@H]3CCCCO3)nc2n1 [Example 233, 2-(4-cyclopropyl-2,6-dimethylphenyl)-6-(oxan-2-yl)-2,5-dihydro-4H-pyrazolo[3,4-d]pyrimidin-4-one]",93,
"Cc1cc(C2CC2)cc(C)c1-n1cc2c(=O)[nH]c(C3(C#N)CC3)nc2n1 [Example 318, 1-[2-(4-cyclopropyl-2,6-dimethylphenyl)-4-oxo-4,5-dihydro-2H-pyrazolo[3,4-d]pyrimidin-6-yl]cyclopropane-1-carbonitrile]",98,
"Cc1cc(C2CC2)cc(C)c1-n1cc2c(=O)[nH]c(COCC(F)F)nc2n1 [Example 212, 2-(4-cyclopropyl-2,6-dimethylphenyl)-6-[(2,2-difluoroethoxy)methyl]-2,5-dihydro-4H-pyrazolo[3,4-d]pyrimidin-4-one]",,103
"Cc1cc(C2CC2)cc(C)c1-n1cc2c(=O)[nH]c([C@@H]3CCOC3)nc2n1 [Example 201, 2-(4-cyclopropyl-2,6-dimethylphenyl)-6-(oxolan-3-yl)-2,5-dihydro-4H-pyrazolo [3,4-d]pyrimidin-4-one]",,99
"Cc1ccc(-n2cc3c(=O)[nH]c(OCCC(F)(F)F)nc3n2)c(C)c1 [Example 197, 2-(2,4-dimethylphenyl)-6-(3,3,3-trifluoropropoxy)-2,5-dihydro-4H-pyrazolo [3,4-d]pyrimidin-4-one]",,60
"Cc1cc(C2CC2)cc(C)c1-n1cc2c(=O)[nH]c(CN3CCCO3)nc2n1 [Example 237, 2-(4-cyclopropyl-2,6-dimethylphenyl)-6-[(1,2-oxazolidin-2-yl)methyl]-2,5-dihydro-4H-pyrazolo[3,4-d]pyrimidin-4-one]",98,
"O=c1[nH]c(COC(F)F)nc2nn(-c3ccc([N+](=O)[O-])cc3C(F)F)cc12 [Example 256, 6-[(difluoromethoxy)methyl]-2-[2-(difluoromethyl)-4-nitrophenyl]-2,5-dihydro-4H-pyrazolo [3,4-d]pyrimidin-4-one]",89,
"Cc1cc(C2CC2)cc(C)c1-n1cc2c(=O)[nH]c(C3CCCO3)nc2n1 (racemic) [Example 223, 2-(4-cyclopropyl-2,6-dimethylphenyl)-6-(oxolan-2-yl)-2,5-dihydro-4H-pyrazolo[3,4-d]pyrimidin-4-one]",,100
"CCCc1nc2nn(-c3c(C)cc(C4CC4)cc3C)cc2c(=O)[nH]1 [Example 240, 2-(4-cyclopropyl-2,6-dimethylphenyl)-6-propyl-2,5-dihydro-4H-pyrazolo[3,4-d]pyrimidin-4-one]",101,
